Laboratory results published in patent US20230025510A1, “BIARYL ETHER-TYPE QUINAZOLINE DERIVATIVES” (DAIICHI SANKYO COMPANY, LIMITED, priority 2018, published 2023).

Assays:
Assay type in all cases: cell-based
Ba/F3-EGFR WT cells = assay: Cell proliferation suppression test (CellTiter-Glo, GI50), Ba/F3-EGFR WT; conditions: Mus musculus, 72 h, 100 ng/mL EGF, 3 days, N=4
Protocol: (§1) Cell proliferation suppression test Ba/F3-Mock, Ba/F3-EGFR WT, Ba/F3-EGFR ins. ASV, and Ba/F3-EGFR ins. SVD cell lines were cultured based on a culture medium of 10% FBS-containing RPMI 1640 supplemented with 1.5 ug/mL puromycin, and 5 ng/mL IL-3 and 100 ng/mL of EGF were further added to the culture solution for Ba/F3-Mock and Ba/F3-EGFR WT, respectively. The cells were cultured in a CO2 incubator set at 37° C., 5% CO2. Specimens prepared by dilution were seeded into 384-well tissue culture plates with Echo555 (Labcyte Inc.), and the cells were seeded thereto at 400 cells/well for Ba/F3-Mock, Ba/F3-EGFR WT, and Ba/F3-EGFR ins. SVD and at 200 cells/well for Ba/F3-EGFR ins. ASV (day 0), then they were cultured for an additional 3 days. On the day of the compound addition (day 0) and 3 days after the compound addition (day 3), ATP quantity was measured with CellTiter-Glo (registered trademark) 2.0 (Promega Corporation.), and used as an indicator of cell quantity (N=4). In the test, puromycin-free culture medium was used. Concentrations at which cell proliferation from day 0 to day 3 was inhibited by 50% (GIso) were calculated with EXCEL.

Ba/F3-Mock cells = assay: Cell proliferation suppression test (CellTiter-Glo, GI50), Ba/F3-Mock; conditions: Mus musculus, BaF3, 72 h, 5 ng/mL IL-3, 3 days, N=4
Protocol: as §1

[1] = tested on: Ba/F3-EGFR ins. ASV cells; assay: Cell proliferation suppression test (CellTiter-Glo, GI50), Ba/F3-EGFR ins. ASV; conditions: Mus musculus, 72 h, 3 days, N=4
Protocol: as §1

[2] = tested on: Ba/F3-EGFR ins. SVD cells; assay: Cell proliferation suppression test (CellTiter-Glo, GI50), Ba/F3-EGFR ins. SVD; conditions: Mus musculus, 72 h, 3 days, N=4
Protocol: as §1

Compound	GI50 (Ba/F3-EGFR WT cells)	GI50 [1]	GI50 [2]	GI50 (Ba/F3-Mock cells)
COc1cc2ncnc(Nc3ccc(Oc4nn(CC(=O)NC(C)(C)C)cc4F)cc3Cl)c2cc1NC(=O)/C=C/CN1CCC(F)C1 (racemic) [Example 55, rac-(2E)-N-{4-[4-({1-[2-(tert-Butylamino)-2-oxoethyl]-4-fluoro-1H-pyrazol-3-yl}oxy)-2-chloroanilino]-7-methoxyquinazolin-6-yl}-4-(3-fluoropyrrolidin-1-yl)but-2-enamide]	441 nM	12.9 nM	10.3 nM	4290 nM
COc1cc2ncnc(Nc3ccc(Oc4nn(CC(=O)NC(C)(C)C)cc4F)cc3F)c2cc1NC(=O)/C=C/CN1CCC(F)C1 (racemic) [Example 58, rac-(2E)-N-{4-[4-({1-[2-(tert-Butylamino)-2-oxoethyl]-4-fluoro-1H-pyrazol-3-yl}oxy)-2-fluoroanilino]-7-methoxyquinazolin-6-yl}-4-(3-fluoropyrrolidin-1-yl)but-2-enamide]	252 nM	10.3 nM	6.7 nM	4010 nM
C=CC(=O)N1CCC(Oc2cc3c(Nc4ccc(Oc5cccc(-c6cn(C)nn6)c5)cc4Cl)ncnc3cc2OC)CC1 [Example 3, 1-{4-[(4-{2-Chloro-4-[3-(1-methyl-1H-1,2,3-triazol-4-yl)phenoxy]anilino}-7-methoxyquinazolin-6-yl)oxy]piperidin-1-yl}prop-2-en-1-one]	370 nM	40.6 nM	30 nM	9930 nM
C=CC(=O)N1CCC(Oc2cc3c(Nc4ccc(Oc5ccn(-c6ccnc(OC)c6)n5)cc4F)ncnc3cc2OC)CC1 [Example 9, 1-(4-{[4-(2-Fluoro-4-{[1-(2-methoxypyridin-4-yl)-1H-pyrazol-3-yl]oxy}anilino)-7-methoxyquinazolin-6-yl]oxy}piperidin-1-yl)prop-2-en-1-one]	280 nM	17.1 nM	15.3 nM	9590 nM
C=CC(=O)N1CCC(Oc2cc3c(Nc4ccc(Oc5ccn(-c6cnc(C7CC7)nc6)n5)cc4F)ncnc3cc2OC)CC1 [Example 10, 1-(4-{[4-(4-{[1-(2-cyclopropylpyrimidin-5-yl)-1H-pyrazol-3-yl]oxy}-2-fluoroanilino)-7-methoxyquinazolin-6-yl]oxy}piperidin-1-yl)prop-2-en-1-one]	212 nM	11.9 nM	7.6 nM	6170 nM
C=CC(=O)N1CCC(Oc2cc3c(Nc4ccc(Oc5nc(-c6cnc(C)c(F)c6)cs5)cc4F)ncnc3cc2OC)CC1 [Example 11, 1-(4-{[4-(2-Fluoro-4-{[4-(5-fluoro-6-methylpyridin-3-yl)-1,3-thiazol-2-yl]oxy}anilino)-7-methoxyquinazolin-6-yl]oxy}piperidin-1-yl)prop-2-en-1-one]	290 nM	11.3 nM	12.5 nM	> 10000 nM
C=CC(=O)N1CCC(Oc2cc3c(Nc4ccc(Oc5nc(-c6cnc(C)c(Cl)c6)cs5)cc4F)ncnc3cc2OC)CC1 [Example 12, 1-(4-{[4-(4-{[4-(5-Chloro-6-methylpyridin-3-yl)-1,3-thiazol-2-yl]oxy}-2-fluoroanilino)-7-methoxyquinazolin-6-yl]oxy}piperidin-1-yl)prop-2-en-1-one]	646 nM	44.8 nM	29.8 nM	> 10000 nM
C=CC(=O)N1CCC(Oc2cc3c(Nc4ccc(Oc5cccc(-c6nnc(C)o6)c5)cc4Cl)ncnc3cc2OC)CC1 [Example 13, 1-{4-[(4-{2-Chloro-4-[3-(5-methyl-1,3,4-oxadiazol-2-yl)phenoxy]anilino}-7-methoxyquinazolin-6-yl)oxy]piperidin-1-yl}prop-2-en-1-one]	854 nM	44.5 nM	54.1 nM	8280 nM
C=CC(=O)N1CCC(Oc2cc3c(Nc4ccc(Oc5ccn(-c6cnc(OC)nc6)n5)cc4F)ncnc3cc2OC)CC1 [Example 14, 1-(4-{[4-(2-Fluoro-4-{[1-(2-methoxypyrimidin-5-yl)-1H-pyrazol-3-yl]oxy}anilino)-7-methoxyquinazolin-6-yl]oxy}piperidin-1-yl)prop-2-en-1-one]	429 nM	13.7 nM	13.5 nM	5950 nM
C=CC(=O)N1CCC(Oc2cc3c(Nc4ccc(Oc5nc(-c6cnc(OC)nc6)cs5)cc4F)ncnc3cc2OC)CC1 [Example 16, 1-(4-{[4-(2-Fluoro-4-{[4-(2-methoxypyrimidin-5-yl)-1,3-thiazol-2-yl]oxy}anilino)-7-methoxyquinazolin-6-yl]oxy}piperidin-1-yl)prop-2-en-1-one]	320 nM	11.4 nM	11.3 nM	> 10000 nM

Now those with a lower GI50 (Ba/F3-EGFR WT cells), led by results:

GI50 (Ba/F3-EGFR WT cells)	GI50 [1]	GI50 [2]	Compound	GI50 (Ba/F3-Mock cells)
115 nM	15.5 nM	8.9 nM	C=CC(=O)N1CCC(Oc2cc3c(Nc4ccc(Oc5cccc(C(=O)NC(C)(C)C)c5)cc4F)ncnc3cc2OC)CC1 [Example 1, N-tert-Butyl-3-{3-fluoro-4-[(7-methoxy-6-{[1-(prop-2-enoyl)piperidin-4-yl]oxy}quinazolin-4-yl)amino]phenoxy}benzamide]	7900 nM
123 nM	13.9 nM	13.7 nM	C=CC(=O)N1CCC(Oc2cc3c(Nc4ccc(Oc5cccc(-c6cn(C)nn6)c5)cc4F)ncnc3cc2OC)CC1 [Example 2]	9530 nM
78.3 nM	7.4 nM	5 nM	C=CC(=O)N1CCC(Oc2cc3c(Nc4ccc(Oc5ccn(C(=O)NC(C)(C)C)n5)cc4F)ncnc3cc2OC)CC1 [Example 4, N-tert-Butyl-3-{3-fluoro-4-[(7-methoxy-6-{[1-(prop-2-enoyl)piperidin-4-yl]oxy}quinazolin-4-yl)amino]phenoxy}-1H-pyrazole-1-carboxamide]	7610 nM
77.1 nM	5.4 nM	4.3 nM	C=CC(=O)N1CCC(Oc2cc3c(Nc4ccc(Oc5ccn(C(=O)NC(C)(C)CF)n5)cc4F)ncnc3cc2OC)CC1 [Example 5, 3-{3-Fluoro-4-[(7-methoxy-6-{[1-(prop-2-enoyl)piperidin-4-yl]oxy}quinazolin-4-yl)amino]phenoxy}-N-(1-fluoro-2-methylpropan-2-yl)-1H-pyrazole-1-carboxamide]	> 10000 nM
175 nM	19.2 nM	19.2 nM	C=CC(=O)N1CCC(Oc2cc3c(Nc4ccc(Oc5ccn(C(=O)NC(C)C)n5)cc4F)ncnc3cc2OC)CC1 [Example 6, 3-{3-Fluoro-4-[(7-methoxy-6-{[1-(prop-2-enoyl)piperidin-4-yl]oxy}quinazolin-4-yl)amino]phenoxy}-N-(propan-2-yl)-1H-pyrazole-1-carboxamide]	5660 nM
191 nM	39.4 nM	19.6 nM	C=CC(=O)N1CCC(Oc2cc3c(Nc4cc(F)c(Oc5ccn(C(=O)NC(C)(C)C)n5)cc4F)ncnc3cc2OC)CC1 [Example 7, N-tert-Butyl-3-{2,5-difluoro-4-[(7-methoxy-6-{[1-(prop-2-enoyl)piperidin-4-yl]oxy}quinazolin-4-yl)amino]phenoxy}-1H-pyrazole-1-carboxamide]	5900 nM
172 nM	19.8 nM	19.7 nM	C=CC(=O)N1CCC(Oc2cc3c(Nc4ccc(Oc5ccn(C(=O)NC6(C)CC6)n5)cc4F)ncnc3cc2OC)CC1 [Example 8, 3-{3-Fluoro-4-[(7-methoxy-6-{[1-(prop-2-enoyl)piperidin-4-yl]oxy}quinazolin-4-yl)amino]phenoxy}-N-(1-methylcyclopropyl)-1H-pyrazole-1-carboxamide]	7160 nM
77.3 nM	12.2 nM	5.5 nM	C=CC(=O)N1CCC(Oc2cc3c(Nc4ccc(Oc5nc(C(=O)NC(C)(C)C)cs5)cc4F)ncnc3cc2OC)CC1 [Example 15, N-tert-Butyl-2-{3-fluoro-4-[(7-methoxy-6-{[1-(prop-2-enoyl)piperidin-4-yl]oxy}quinazolin-4-yl)amino]phenoxy}-1,3-thiazole-4-carboxamide]	> 10000 nM
186 nM	10.3 nM	8 nM	C=CC(=O)N1CCC(Oc2cc3c(Nc4ccc(Oc5cccc(-c6nnc(C)o6)c5)cc4F)ncnc3cc2OC)CC1 [Example 17, 1-{4-[(4-{2-Fluoro-4-[3-(5-methyl-1,3,4-oxadiazol-2-yl)phenoxy]anilino}-7-methoxyquinazolin-6-yl)oxy]piperidin-1-yl}prop-2-en-1-one]	8220 nM
158 nM	12.2 nM	12.2 nM	C=CC(=O)N1CCC(Oc2cc3c(Nc4ccc(Oc5cccc(-c6nnc(C)o6)c5)cc4F)ncnc3cc2OCC)CC1 [Example 18, 1-{4-[(7-Ethoxy-4-{2-fluoro-4-[3-(5-methyl-1,3,4-oxadiazol-2-yl)phenoxy]anilino}quinazolin-6-yl)oxy]piperidin-1-yl}prop-2-en-1-one]	4660 nM
